Experimental data published in PMC5740067 (Scientific Reports, 2017).
Read-outs that look alike come from different tables or passages of the source.

Experiments:
OccJ WT [1] = target: T1, OccJ WT (Agrobacterium tumefaciens, UniProt P0A4F8); test: biochemical; type: binding
T1 construct: The mature PBP OccJ (256 aa without the signal peptide) expression plasmid was obtained by cloning the occJ gene lacking the first twenty residues; hexahistidine (C); made in house; host or cells: E. coli BL21
Procedure: (§1) Binding of ligands to OccJ, NocT, LAO and protein mutants was monitored by autofluorescence by exciting the protein at a wavelength of 295 nm and monitoring the quenching of fluorescence emission of tryptophans at 335 nm. All experiments were performed at 20 °C in 96 wells plates (1/2 Area Plate-96F, Perkin Elmer) using Tecan Infinite M1000 reader (Tecan), in 50 mM Tris-HCl pH 8.0, 150 mM NaCl buffer with a fixed amount of proteins (1 µM) and increasing concentrations of ligand. […] The data were analysed using Origin® 7 software and fitted to the equation f = ΔFluorescencemax * abs(x)/(K D + abs(x)).

OccJ WT [2] = target: T1, OccJ WT; test: OccJ WT ligand binding, isothermal titration microcalorimetry; details: ITC, 20 °C
Procedure: (§2) Isothermal titration microcalorimetry experiments were performed with an ITC200 isothermal titration calorimeter from MicroCal (GE Healthcare). The experiments were carried out at 20 °C. Protein concentration in the microcalorimeter cell (0.2 mL) varied from 20 to 150 µM. Nineteen injections of 2 µL of ligand solution (amino acids, opines and octopine derivatives) at concentration ranging from 240 µM to 1.5 mM were performed at intervals of 180 s while stirring at 500 rpm. The experimental data were fitted to theoretical titration curves with software supplied by MicroCal (ORIGIN®). This software uses the relationship between the heat generated by each injection and ΔH (enthalpy change in kcal/mol), Ka (the association binding constant in M^−1), n (the number of binding sites), total protein concentration and free and total ligand concentrations.

OccJ S91G = target: T2, OccJ S91G (Agrobacterium tumefaciens, UniProt P0A4F8, S91G); test: OccJ S91G ligand binding, fluorescence titration; details: intrinsic protein fluorescence titration; 20 °C; pH 8.0
T2 construct: The mature LAO expression plasmid, LAO-Q122A, OccJ-S91G and OccJ-N202D were chemically synthesized; pET-28a); host or cells: E. coli BL21
T2 sequence (P0A4F8 21-276 S91G): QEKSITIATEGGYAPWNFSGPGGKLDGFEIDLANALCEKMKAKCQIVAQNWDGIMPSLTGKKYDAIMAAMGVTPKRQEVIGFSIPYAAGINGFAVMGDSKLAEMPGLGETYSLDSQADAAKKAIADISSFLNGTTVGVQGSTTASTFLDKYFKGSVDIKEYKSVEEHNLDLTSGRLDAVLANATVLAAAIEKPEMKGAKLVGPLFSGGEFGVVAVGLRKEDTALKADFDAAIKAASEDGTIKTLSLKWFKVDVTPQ
Procedure: as §1

OccJ N202D = target: T3, OccJ N202D (Agrobacterium tumefaciens, UniProt P0A4F8, N202D); type: binding; details: ITC, 20 °C
T3 construct: The mature LAO expression plasmid, LAO-Q122A, OccJ-S91G and OccJ-N202D were chemically synthesized; pET-28a); host or cells: E. coli BL21
T3 sequence (P0A4F8 21-276 N202D): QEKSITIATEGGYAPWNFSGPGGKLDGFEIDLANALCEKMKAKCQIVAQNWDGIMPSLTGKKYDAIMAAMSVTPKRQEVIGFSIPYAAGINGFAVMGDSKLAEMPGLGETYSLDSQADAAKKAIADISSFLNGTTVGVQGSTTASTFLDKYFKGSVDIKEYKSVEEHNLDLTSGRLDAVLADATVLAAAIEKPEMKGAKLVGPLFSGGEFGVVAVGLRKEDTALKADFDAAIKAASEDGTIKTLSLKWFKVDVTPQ
Procedure: as §2

LAO WT = target: T4, LAO WT (Salmonella typhimurium, UniProt P02911); test: biochemical; type: binding, Salmonella enterica
T4 construct: The mature LAO expression plasmid, LAO-Q122A, OccJ-S91G and OccJ-N202D were chemically synthesized; pET-28a); host or cells: E. coli BL21
T4 sequence (P02911 23-260): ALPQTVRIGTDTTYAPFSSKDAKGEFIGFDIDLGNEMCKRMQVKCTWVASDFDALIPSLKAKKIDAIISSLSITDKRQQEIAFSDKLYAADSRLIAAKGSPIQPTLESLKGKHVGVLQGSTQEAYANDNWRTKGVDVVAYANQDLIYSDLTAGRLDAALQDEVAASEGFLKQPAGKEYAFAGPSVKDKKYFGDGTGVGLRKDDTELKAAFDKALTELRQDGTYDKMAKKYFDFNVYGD
Procedure: as §2

LAO Q122A = target: T5, LAO Q122A (Salmonella typhimurium, UniProt P02911, Q144A); test: LAO Q122A ligand binding, ITC; set-up: species or system Salmonella enterica
T5 construct: The mature LAO expression plasmid, LAO-Q122A, OccJ-S91G and OccJ-N202D were chemically synthesized; pET-28a); host or cells: E. coli BL21
T5 sequence (P02911 23-260 Q144A): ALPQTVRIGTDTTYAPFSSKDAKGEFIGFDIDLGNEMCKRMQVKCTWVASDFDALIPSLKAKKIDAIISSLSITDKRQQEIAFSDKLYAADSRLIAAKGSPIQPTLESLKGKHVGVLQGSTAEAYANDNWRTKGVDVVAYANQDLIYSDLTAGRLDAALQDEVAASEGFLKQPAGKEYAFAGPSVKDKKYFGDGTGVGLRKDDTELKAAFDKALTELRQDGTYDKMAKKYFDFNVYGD
Procedure: as §2

NocT WT [3] = target: T6, NocT WT (Agrobacterium fabrum, UniProt P35120); details: F/ITC; amino acids; ref [6]; cited from earlier work
T6 construct: Cloning of mature OccJ, NocT-G97S, OccJ-S91G, OccJ-N202D, LAO and LAO-Q122A; made in house
T6 sequence (P35120 26-283): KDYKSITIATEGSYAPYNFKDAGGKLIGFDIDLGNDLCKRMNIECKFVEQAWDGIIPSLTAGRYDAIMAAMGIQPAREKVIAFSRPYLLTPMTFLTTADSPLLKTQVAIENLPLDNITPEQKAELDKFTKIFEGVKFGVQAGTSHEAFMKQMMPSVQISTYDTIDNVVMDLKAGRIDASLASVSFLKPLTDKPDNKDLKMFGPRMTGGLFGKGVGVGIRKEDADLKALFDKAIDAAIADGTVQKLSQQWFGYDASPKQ

LAO = target: LAO; set-up: method as in PMID 1400387; details: ref [20]; cited from earlier work
NocT WT [4] = target: T6, NocT WT; type: binding, Agrobacterium tumefaciens; details: fluorescence titration; 20 °C; pH 8.0; octopine family members and analogues; read-out: Kd (F)
Procedure: as §1

NocT WT [5] = target: T6, NocT WT; type: binding, Agrobacterium tumefaciens; details: ITC, 20 °C
Procedure: as §2

[6] = intrinsic protein fluorescence titration, 20 °C, 50 mM Tris-HCl pH 8.0, 150 mM NaCl, 1 µM protein
[7] = intrinsic protein fluorescence titration, 20 °C, 50 mM Tris-HCl pH 8.0, 150 mM NaCl, 1 µM protein, read-out: K D (F)

T1 sequence (P0A4F8 21-276): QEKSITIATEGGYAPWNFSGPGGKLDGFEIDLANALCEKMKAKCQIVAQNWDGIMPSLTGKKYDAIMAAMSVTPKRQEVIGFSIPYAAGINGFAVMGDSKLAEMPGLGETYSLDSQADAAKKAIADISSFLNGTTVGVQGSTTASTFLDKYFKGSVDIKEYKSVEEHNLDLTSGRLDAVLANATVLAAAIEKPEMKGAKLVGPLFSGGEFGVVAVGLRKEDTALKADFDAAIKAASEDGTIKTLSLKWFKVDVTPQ

## N=C(N)NCCC[C@H](N)C(=O)O [L-arginine]
OccJ WT [1]
  Kd: 7.2 ± 1 µM
OccJ WT [2]
  Enthalpy (ΔH): -4.208 kcal/mol
  Entropic contribution (-TΔS): -1.755 kcal/mol
  Entropy (ΔS): 5.99 cal/mol/deg
  Free enthalpy (ΔG): -5.964 kcal/mol
  Kd: 35.7 µM
OccJ S91G
  K D (F): can no longer bind
OccJ N202D
  Enthalpy (ΔH): -0.632 kcal/mol
  Entropic contribution (-TΔS): -5.696 kcal/mol
  Entropy (ΔS): 19.3 cal/mol/deg
  Free enthalpy (ΔG): -6.328 kcal/mol
LAO WT
  Kd: 0.024 ± 0.002 µM
LAO WT; ITC, 20 °C
  Enthalpy (ΔH): -10.91 kcal/mol
  Entropic contribution (-TΔS): 0.703 kcal/mol
  Entropy (ΔS): -2.4 cal/mol/deg
  Free enthalpy (ΔG): -10.207 kcal/mol
LAO Q122A
  Kd: 0.12 ± 0.01 µM
LAO Q122A; ITC
  fold lower affinity of LAO-Q122A compared with WT: 5 fold
LAO Q122A; ITC, 20 °C
  Enthalpy (ΔH): -6.853 kcal/mol
  Entropic contribution (-TΔS): -2.433 kcal/mol
  Entropy (ΔS): 8.3 cal/mol/deg
  Free enthalpy (ΔG): -9.286 kcal/mol
NocT WT [3]
  K D, amino acids: does not interact
LAO
  previous reported affinity: nanomolar range

## NCCCC[C@H](N)C(=O)O [L-lysine]
OccJ WT [1]
  Kd: 7.5 ± 2.1 µM
OccJ WT [2]
  Enthalpy (ΔH): -4.92 kcal/mol
  Entropic contribution (-TΔS): -0.645 kcal/mol
  Entropy (ΔS): 2.20 cal/mol/deg
  Free enthalpy (ΔG): -5.565 kcal/mol
  Kd: 71 µM
OccJ S91G
  K D (F): can no longer bind
NocT WT [3]
  K D, amino acids: does not interact
LAO
  previous reported affinity: nanomolar range

## N[C@@H](Cc1c[nH]cn1)C(=O)O [histidine]
OccJ WT [1]; [6]
  K D (F): No fluorescence intensity change was detected

## CC(N[C@@H](Cc1cnc[nH]1)C(=O)O)C(=O)O (some centres unmarked) [histopine]
OccJ WT [1]; [6]
  K D (F): micromolar range
OccJ WT [1]; [7]
  Kd: 33.1 ± 3.5 µM
OccJ WT [2]
  Enthalpy (ΔH): -0.854 kcal/mol
  Entropic contribution (-TΔS): -3.81 kcal/mol
  Entropy (ΔS): 13 cal/mol/deg
  Free enthalpy (ΔG): -4.664 kcal/mol
  Kd: 326 µM
NocT WT [4]
  Kd: 84.4 ± 6.7 µM

## N=C(N)NCCCC[C@H](NCC(=O)O)C(=O)O [homo-noroctopine]
OccJ WT [1]; [7]
  Kd: 4.63 ± 0.42 µM
OccJ WT [2]
  Enthalpy (ΔH): -4.115 kcal/mol
  Entropic contribution (-TΔS): -2.207 kcal/mol
  Entropy (ΔS): 7.53 cal/mol/deg
  Free enthalpy (ΔG): -6.322 kcal/mol
  Kd: 19.3 ± 1.4 µM
NocT WT [4]
  Kd: 21.3 ± 2.1 µM
NocT WT [5]
  Enthalpy (ΔH): -1.195 kcal/mol
  Entropic contribution (-TΔS): -4.309 kcal/mol
  Entropy (ΔS): 14.7 cal/mol/deg
  Free enthalpy (ΔG): -5.504 kcal/mol
  Kd: 79 ± 14 µM

## C[C@@H](N[C@@H](CCCCN)C(=O)O)C(=O)O [lysopine]
OccJ WT [1]; fluorescence titration, read-out: apparent dissociation constant K D
  Kd: 0.14 ± 0.01 µM
OccJ WT [1]; [7]
  Kd: 0.14 ± 0.01 µM
OccJ WT [2]
  Enthalpy (ΔH): -4.832 kcal/mol
  Entropic contribution (-TΔS): -4.455 kcal/mol
  Entropy (ΔS): 15.2 cal/mol/deg
  Free enthalpy (ΔG): -9.287 kcal/mol
  Kd: 0.11 ± 0.02 µM
NocT WT [4]
  Kd: 11.2 ± 3.5 µM
